From ChEMBL document CHEMBL1667745, “Synthesis and antibacterial evaluation of novel clarithromycin derivatives with C-4″ elongated arylalkyl groups against macrolide-resistant strains” (2011)
Converted amounts (≈) assume the structure as drawn.

Assays:
Format in all cases: functional
Streptococcus pneumoniae [1] = assay: Antimicrobial activity against erythromycin-susceptible Streptococcus pneumoniae ATCC 49619 by broth microdilution method
Streptococcus pneumoniae [2] = assay: Antimicrobial activity against erythromycin-resistant Streptococcus pneumoniae B1 expressing the erm gene by broth microdilution method
Streptococcus pneumoniae [3] = assay: Antimicrobial activity against erythromycin-resistant Streptococcus pneumoniae A22072 expressing the mef gene by broth microdilution method
Streptococcus pneumoniae [4] = assay: Antimicrobial activity against erythromycin-resistant Streptococcus pneumoniae AB11 expressing the erm and mef gene by broth microdilution method
Staphylococcus aureus [5] = assay: Antimicrobial activity against erythromycin-susceptible Staphylococcus aureus ATCC 25923 by broth microdilution method
Staphylococcus aureus [6] = assay: Antimicrobial activity against penicillin-susceptible Staphylococcus aureus P1 by broth microdilution method
Streptococcus pyogenes [7] = assay: Antimicrobial activity against erythromycin-susceptible Streptococcus pyogenes S2 by broth microdilution method
Streptococcus pyogenes [8] = assay: Antimicrobial activity against erythromycin-resistant Streptococcus pyogenes R2 by broth microdilution method

SMILES | MIC (Streptococcus pneumoniae [1]) | MIC (Streptococcus pneumoniae [2]) | MIC (Streptococcus pneumoniae [3]) | MIC (Streptococcus pneumoniae [4]) | MIC (Staphylococcus aureus [5]) | MIC (Staphylococcus aureus [6]) | MIC (Streptococcus pyogenes [7]) | MIC (Streptococcus pyogenes [8])
CC[C@H]1OC(=O)[C@H](C)[C@@H](O[C@H]2C[C@@](C)(OC)[C@@H](OC(=O)NCCCC(=O)NC(C)C)[C@H](C)O2)[C@H](C)[C@@H](O[C@@H]2O[C@H](C)C[C@H](N(C)C)[C@H]2O)[C@](C)(OC)C[C@@H](C)C(=O)[C@H](C)[C@@H](O)[C@]1(C)O | 0.03 µg/mL (≈ 0.0327 µM) | 128 µg/mL (≈ 139 µM) | 8 µg/mL (≈ 8.71 µM) | 128 µg/mL (≈ 139 µM) | 0.25 µg/mL (≈ 0.272 µM) | 8 µg/mL (≈ 8.71 µM) | 0.5 µg/mL (≈ 0.545 µM) | 16 µg/mL (≈ 17.4 µM)
CCCNC(=O)CCCNC(=O)O[C@H]1[C@H](C)O[C@@H](O[C@H]2[C@H](C)[C@@H](O[C@@H]3O[C@H](C)C[C@H](N(C)C)[C@H]3O)[C@](C)(OC)C[C@@H](C)C(=O)[C@H](C)[C@@H](O)[C@](C)(O)[C@@H](CC)OC(=O)[C@@H]2C)C[C@@]1(C)OC | 0.03 µg/mL (≈ 0.0327 µM) | 128 µg/mL (≈ 139 µM) | 4 µg/mL (≈ 4.36 µM) | 128 µg/mL (≈ 139 µM) | 0.25 µg/mL (≈ 0.272 µM) | 32 µg/mL (≈ 34.9 µM) | 1 µg/mL (≈ 1.09 µM) | 32 µg/mL (≈ 34.9 µM)
CCCCNC(=O)CCCNC(=O)O[C@H]1[C@H](C)O[C@@H](O[C@H]2[C@H](C)[C@@H](O[C@@H]3O[C@H](C)C[C@H](N(C)C)[C@H]3O)[C@](C)(OC)C[C@@H](C)C(=O)[C@H](C)[C@@H](O)[C@](C)(O)[C@@H](CC)OC(=O)[C@@H]2C)C[C@@]1(C)OC | 0.03 µg/mL (≈ 0.0322 µM) | 128 µg/mL (≈ 137 µM) | 8 µg/mL (≈ 8.58 µM) | 128 µg/mL (≈ 137 µM) | 0.25 µg/mL (≈ 0.268 µM) | 8 µg/mL (≈ 8.58 µM) | 0.5 µg/mL (≈ 0.536 µM) | 16 µg/mL (≈ 17.2 µM)
CCCCCNC(=O)CCCNC(=O)O[C@H]1[C@H](C)O[C@@H](O[C@H]2[C@H](C)[C@@H](O[C@@H]3O[C@H](C)C[C@H](N(C)C)[C@H]3O)[C@](C)(OC)C[C@@H](C)C(=O)[C@H](C)[C@@H](O)[C@](C)(O)[C@@H](CC)OC(=O)[C@@H]2C)C[C@@]1(C)OC | 0.03 µg/mL (≈ 0.0317 µM) | 8 µg/mL (≈ 8.45 µM) | 2 µg/mL (≈ 2.11 µM) | 32 µg/mL (≈ 33.8 µM) | 0.5 µg/mL (≈ 0.528 µM) | 16 µg/mL (≈ 16.9 µM) | 0.5 µg/mL (≈ 0.528 µM) | 16 µg/mL (≈ 16.9 µM)
CC[C@H]1OC(=O)[C@H](C)[C@@H](O[C@H]2C[C@@](C)(OC)[C@@H](OC(=O)NCCCCCC(=O)NCc3ccccc3)[C@H](C)O2)[C@H](C)[C@@H](O[C@@H]2O[C@H](C)C[C@H](N(C)C)[C@H]2O)[C@](C)(OC)C[C@@H](C)C(=O)[C@H](C)[C@@H](O)[C@]1(C)O | 0.03 µg/mL (≈ 0.0302 µM) | 64 µg/mL (≈ 64.4 µM) | 2 µg/mL (≈ 2.01 µM) | 64 µg/mL (≈ 64.4 µM) | 0.5 µg/mL (≈ 0.503 µM) | 8 µg/mL (≈ 8.05 µM) | 0.12 µg/mL (≈ 0.121 µM) | 0.25 µg/mL (≈ 0.251 µM)
CC[C@H]1OC(=O)[C@H](C)[C@@H](O[C@H]2C[C@@](C)(OC)[C@@H](OC(=O)NCCCCCC(=O)NCc3ccc(F)cc3)[C@H](C)O2)[C@H](C)[C@@H](O[C@@H]2O[C@H](C)C[C@H](N(C)C)[C@H]2O)[C@](C)(OC)C[C@@H](C)C(=O)[C@H](C)[C@@H](O)[C@]1(C)O | 0.03 µg/mL (≈ 0.0296 µM) | 2 µg/mL (≈ 1.98 µM) | 0.5 µg/mL (≈ 0.494 µM) | 4 µg/mL (≈ 3.95 µM) | 0.25 µg/mL (≈ 0.247 µM) | 32 µg/mL (≈ 31.6 µM) | 0.03 µg/mL (≈ 0.0296 µM) | 0.25 µg/mL (≈ 0.247 µM)
CC[C@H]1OC(=O)[C@H](C)[C@@H](O[C@H]2C[C@@](C)(OC)[C@@H](OC(=O)NCCCCCC(=O)NCc3ccc(OC)cc3)[C@H](C)O2)[C@H](C)[C@@H](O[C@@H]2O[C@H](C)C[C@H](N(C)C)[C@H]2O)[C@](C)(OC)C[C@@H](C)C(=O)[C@H](C)[C@@H](O)[C@]1(C)O | 0.03 µg/mL (≈ 0.0293 µM) | 64 µg/mL (≈ 62.5 µM) | 0.5 µg/mL (≈ 0.488 µM) | 64 µg/mL (≈ 62.5 µM) | 0.12 µg/mL (≈ 0.117 µM) | 1 µg/mL (≈ 0.976 µM) | 0.12 µg/mL (≈ 0.117 µM) | 32 µg/mL (≈ 31.2 µM)
CC[C@H]1OC(=O)[C@H](C)[C@@H](O[C@H]2C[C@@](C)(OC)[C@@H](OC(=O)NCCCCCC(=O)NCCc3ccc(O)cc3)[C@H](C)O2)[C@H](C)[C@@H](O[C@@H]2O[C@H](C)C[C@H](N(C)C)[C@H]2O)[C@](C)(OC)C[C@@H](C)C(=O)[C@H](C)[C@@H](O)[C@]1(C)O | 0.06 µg/mL (≈ 0.0586 µM) | 64 µg/mL (≈ 62.5 µM) | 8 µg/mL (≈ 7.81 µM) | 64 µg/mL (≈ 62.5 µM) | 0.25 µg/mL (≈ 0.244 µM) | 1 µg/mL (≈ 0.976 µM) | 0.5 µg/mL (≈ 0.488 µM) | 64 µg/mL (≈ 62.5 µM)
CC[C@H]1OC(=O)[C@H](C)[C@@H](O[C@H]2C[C@@](C)(OC)[C@@H](OC(=O)NCCCCCC(=O)NCCc3ccccc3Cl)[C@H](C)O2)[C@H](C)[C@@H](O[C@@H]2O[C@H](C)C[C@H](N(C)C)[C@H]2O)[C@](C)(OC)C[C@@H](C)C(=O)[C@H](C)[C@@H](O)[C@]1(C)O | 0.03 µg/mL (≈ 0.0288 µM) | 64 µg/mL (≈ 61.4 µM) | 1 µg/mL (≈ 0.959 µM) | 32 µg/mL (≈ 30.7 µM) | 0.25 µg/mL (≈ 0.24 µM) | 0.5 µg/mL (≈ 0.48 µM) | 0.06 µg/mL (≈ 0.0575 µM) | 64 µg/mL (≈ 61.4 µM)
CC[C@H]1OC(=O)[C@H](C)[C@@H](O[C@H]2C[C@@](C)(OC)[C@@H](OC(=O)NCCCCCC(=O)NC3CCCCC3)[C@H](C)O2)[C@H](C)[C@@H](O[C@@H]2O[C@H](C)C[C@H](N(C)C)[C@H]2O)[C@](C)(OC)C[C@@H](C)C(=O)[C@H](C)[C@@H](O)[C@]1(C)O | 0.03 µg/mL (≈ 0.0304 µM) | 128 µg/mL (≈ 130 µM) | 1 µg/mL (≈ 1.01 µM) | 128 µg/mL (≈ 130 µM) | 0.25 µg/mL (≈ 0.253 µM) | 1 µg/mL (≈ 1.01 µM) | 0.12 µg/mL (≈ 0.122 µM) | 32 µg/mL (≈ 32.4 µM)
CC[C@H]1OC(=O)[C@H](C)[C@@H](O[C@H]2C[C@@](C)(OC)[C@@H](OC(=O)NCCCCCC(=O)NC(C)C)[C@H](C)O2)[C@H](C)[C@@H](O[C@@H]2O[C@H](C)C[C@H](N(C)C)[C@H]2O)[C@](C)(OC)C[C@@H](C)C(=O)[C@H](C)[C@@H](O)[C@]1(C)O | 0.06 µg/mL (≈ 0.0634 µM) | 128 µg/mL (≈ 135 µM) | 8 µg/mL (≈ 8.45 µM) | 128 µg/mL (≈ 135 µM) | 0.25 µg/mL (≈ 0.264 µM) | 1 µg/mL (≈ 1.06 µM) | 0.12 µg/mL (≈ 0.127 µM) | 32 µg/mL (≈ 33.8 µM)
CCCNC(=O)CCCCCNC(=O)O[C@H]1[C@H](C)O[C@@H](O[C@H]2[C@H](C)[C@@H](O[C@@H]3O[C@H](C)C[C@H](N(C)C)[C@H]3O)[C@](C)(OC)C[C@@H](C)C(=O)[C@H](C)[C@@H](O)[C@](C)(O)[C@@H](CC)OC(=O)[C@@H]2C)C[C@@]1(C)OC | 0.03 µg/mL (≈ 0.0317 µM) | 128 µg/mL (≈ 135 µM) | 4 µg/mL (≈ 4.23 µM) | 128 µg/mL (≈ 135 µM) | 0.5 µg/mL (≈ 0.528 µM) | 2 µg/mL (≈ 2.11 µM) | 0.03 µg/mL (≈ 0.0317 µM) | 16 µg/mL (≈ 16.9 µM)
CCCCNC(=O)CCCCCNC(=O)O[C@H]1[C@H](C)O[C@@H](O[C@H]2[C@H](C)[C@@H](O[C@@H]3O[C@H](C)C[C@H](N(C)C)[C@H]3O)[C@](C)(OC)C[C@@H](C)C(=O)[C@H](C)[C@@H](O)[C@](C)(O)[C@@H](CC)OC(=O)[C@@H]2C)C[C@@]1(C)OC | 0.06 µg/mL (≈ 0.0625 µM) | 128 µg/mL (≈ 133 µM) | 1 µg/mL (≈ 1.04 µM) | 128 µg/mL (≈ 133 µM) | 0.25 µg/mL (≈ 0.26 µM) | 8 µg/mL (≈ 8.33 µM) | 0.25 µg/mL (≈ 0.26 µM) | 8 µg/mL (≈ 8.33 µM)
CCCCCNC(=O)CCCCCNC(=O)O[C@H]1[C@H](C)O[C@@H](O[C@H]2[C@H](C)[C@@H](O[C@@H]3O[C@H](C)C[C@H](N(C)C)[C@H]3O)[C@](C)(OC)C[C@@H](C)C(=O)[C@H](C)[C@@H](O)[C@](C)(O)[C@@H](CC)OC(=O)[C@@H]2C)C[C@@]1(C)OC | 0.03 µg/mL (≈ 0.0308 µM) | 128 µg/mL (≈ 131 µM) | 4 µg/mL (≈ 4.11 µM) | 128 µg/mL (≈ 131 µM) | 0.5 µg/mL (≈ 0.513 µM) | 8 µg/mL (≈ 8.21 µM) | 0.25 µg/mL (≈ 0.257 µM) | 16 µg/mL (≈ 16.4 µM)
CC[C@H]1OC(=O)[C@H](C)[C@@H](O[C@H]2C[C@@](C)(OC)[C@@H](O)[C@H](C)O2)[C@H](C)[C@@H](O[C@@H]2O[C@H](C)C[C@H](N(C)C)[C@H]2O)[C@](C)(O)C[C@@H](C)CN(C)[C@H](C)[C@@H](O)[C@]1(C)O [AZITHROMYCIN] | 0.03 µg/mL (≈ 0.0401 µM) | 128 µg/mL (≈ 171 µM) | 4 µg/mL (≈ 5.34 µM) | 256 µg/mL (≈ 342 µM) | 0.25 µg/mL (≈ 0.334 µM) | 0.12 µg/mL (≈ 0.16 µM) | 0.03 µg/mL (≈ 0.0401 µM) | 8 µg/mL (≈ 10.7 µM)
CC[C@H]1OC(=O)[C@H](C)[C@@H](O[C@H]2C[C@@](C)(OC)[C@@H](O)[C@H](C)O2)[C@H](C)[C@@H](O[C@@H]2O[C@H](C)C[C@H](N(C)C)[C@H]2O)[C@](C)(OC)C[C@@H](C)C(=O)[C@H](C)[C@@H](O)[C@]1(C)O [CLARITHROMYCIN] | 0.03 µg/mL (≈ 0.0401 µM) | 64 µg/mL (≈ 85.6 µM) | 4 µg/mL (≈ 5.35 µM) | 128 µg/mL (≈ 171 µM) | 0.12 µg/mL (≈ 0.16 µM) | 0.03 µg/mL (≈ 0.0401 µM) | 0.03 µg/mL (≈ 0.0401 µM) | 4 µg/mL (≈ 5.35 µM)
